In paper PMC7219108, “Pisum sativum Defensin 1 Eradicates Mouse Metastatic Lung Nodules from B16F10 Melanoma Cells” (International Journal of Molecular Sciences, 2020):
Values belong to the molecule of their own block, whether it stands above or below them.

Assays:
[1] = test system: B16F10 cells; experiment: Glucosylceramide depletion study on Psd1 entrance in B16F10 cells; format: cell-based, murine; conditions: 20 µM PPMP, 1 h, without Psd1
Protocol: Figure 4 GlcCer reduction inhibits the entrance of FITC-Psd1 into B16F10 cancer cells. B16F10 cells (1.5 × 10^4) were incubated with or without 20 µM PPMP for 1 h followed by treatment with or without 9 µM FITC-Psd1 for 2 h. Fixed cells were stained with Vybrant™ Alexa Fluor™ 594 and DAPI. (a) B16F10 cells without treatments (−PPMP, −Psd1); (b) B16F10 cells treated with Psd1 for 2 h (–PPMP, +Psd1 (2 h)); (c) B16F10 cells treated with PPMP (+PPMP, −Psd1); (d) B16F10 cells treated with PPMP plus Psd1 (+PPMP, +Psd1 (2 h)). Pictures were acquired at 40× magnification. Inset zoom images are at 100× magnification. At least two experiments were performed independently.
B16F10 cells (1.5 × 10^4) in cover glass were previously incubated with 20 µM DL-threo-1-phenyl-2-palmitoylamino-3-morpholino-1-propanol (PPMP, Sigma-Aldrich Brasil, São Paulo, Brazil) inhibitor for 60 min followed by treatment with 9 µM Psd1 for 30 min or 2 h. The cells were fixed on glass slides with 4% paraformaldehyde plus 4% sucrose for 10 min and then stained with a Vybrant Alexa Fluor 594 Lipid Raft Labeling Kit (Thermo Fisher Scientific Inc, Maryland, USA). Briefly, 1.25 µg/mL cholera toxin subunit B (CT-B) and 160× diluted anti-CT-B were incubated with cells for 10 min each at 4 °C. Three PBS wash steps were performed between each stage. […]

[2] = test system: B16F10 cells; experiment: SYTOXGreen uptake (membrane permeabilization), B16F10 cells; format: cell-based, murine; conditions: 0.0001% H2O2, 30 min
Protocol: Figure 2 Psd1 promotes B16F10 live cell membrane permeabilization as monitored by SYTOX Green fluorescence. (A) Psd1 untreated and hydrogen peroxide-treated B16F10 cells. (B) A total of 1.5 × 10^4 B16F10 cells were incubated with 3 or 50 µM Psd1 for 30 min. (C) 1.5 × 10^4 B16F10 cells were incubated with 50 µM Psd1 for 1 h. All experiments were performed at 37 °C. Nucleus staining is shown in green (SYTOXGreen), and mitochondria are shown in red (MitoTracker Red CMXRos). Images are shown at 20× magnification. […] (E) Psd1 induces apoptosis in B16F10 cells. B16F10 cells were treated with 50 µM Psd1 for 24 h and labeled with propidium iodide, and the DNA content was analyzed by flow cytometry for the sub-G0/G1 profile. At least two independent experiments were performed. TEXT PRINTED IN THE PICTURE: (E) Control: Sub-G1: 4.4% | (E) Psd1: Sub-G1: 60.6% (50μM)
Images were obtained in the X, Y, and Z planes of the image, giving the image a 3-dimensional depth (Z-stack) at 100× magnification with a Zeiss Cell Observer Yokogawa Spinning Disk confocal microscope (Cell Observed SD, Carl-Zeiss, Oberkochen, Germany) located in the Microscopia Óptica de Luz Gustavo de Oliveira Castro (Plamol) platform in Universidade Federal do Rio de Janeiro. To measure the mean fluorescence intensity (MFI), Zen Lite Blue (Carl-Zeiss, Oberkochen, Germany) software was used. On average, thirty cells per field were analyzed in fourteen fields by experiments. Then, the region of interest (ROI), specifically the nucleus and mitochondria, was tagged on the cells photographed for fluorescence analysis, which is given by the software from the intensity of the pixels. Subsequently, the statistical test was performed using GraphPad Prism version 7.4, and the values presented are averages with the corresponding standard deviations (SDs).
B16F10 cells were trypsinized and counted, and 1.5 × 10^4 cells/well in DMEM containing 0.1% (w/v) bovine serum albumin BSA were plated in a cell-view glass bottom culture dish with four compartments (Thermo Fisher Scientific Inc, Maryland, USA) and then incubated at 37 °C overnight to adhere. Post-treatment, the cells were treated with 3 or 50 µM Psd1 for 30 or 60 min and maintained at the same temperature. Cells treated with only water or 0.0001% H2O2 for 30 min were used as the negative and positive controls, respectively. Washes with saline were carried out between the additions of each probe followed by incubation at room temperature. The cells were incubated with 1 µL of SG, 1.5 µL of MitoTracker Red CMXRos, and 2 µL of DAPI for 10, 20, and 10 min, respectively. The fluorescent images were acquired by confocal microscopy.

[3] = biological target: T1, recombinant cyclin F-GST; experiment: SPR; Biacore X, CM5 chip, 25 °C; cyclin F-GST immobilised by amine coupling (10 mM sodium acetate pH 4.0); Psd1 10-240 µM injected at 15 µL/min for 4 min in 10 mM HEPES, 150 mM NaCl, pH 7.4; Psd1-GST curves subtracted; global fit, 1:1 Langmuir model; conditions: both partners purified
T1 chain: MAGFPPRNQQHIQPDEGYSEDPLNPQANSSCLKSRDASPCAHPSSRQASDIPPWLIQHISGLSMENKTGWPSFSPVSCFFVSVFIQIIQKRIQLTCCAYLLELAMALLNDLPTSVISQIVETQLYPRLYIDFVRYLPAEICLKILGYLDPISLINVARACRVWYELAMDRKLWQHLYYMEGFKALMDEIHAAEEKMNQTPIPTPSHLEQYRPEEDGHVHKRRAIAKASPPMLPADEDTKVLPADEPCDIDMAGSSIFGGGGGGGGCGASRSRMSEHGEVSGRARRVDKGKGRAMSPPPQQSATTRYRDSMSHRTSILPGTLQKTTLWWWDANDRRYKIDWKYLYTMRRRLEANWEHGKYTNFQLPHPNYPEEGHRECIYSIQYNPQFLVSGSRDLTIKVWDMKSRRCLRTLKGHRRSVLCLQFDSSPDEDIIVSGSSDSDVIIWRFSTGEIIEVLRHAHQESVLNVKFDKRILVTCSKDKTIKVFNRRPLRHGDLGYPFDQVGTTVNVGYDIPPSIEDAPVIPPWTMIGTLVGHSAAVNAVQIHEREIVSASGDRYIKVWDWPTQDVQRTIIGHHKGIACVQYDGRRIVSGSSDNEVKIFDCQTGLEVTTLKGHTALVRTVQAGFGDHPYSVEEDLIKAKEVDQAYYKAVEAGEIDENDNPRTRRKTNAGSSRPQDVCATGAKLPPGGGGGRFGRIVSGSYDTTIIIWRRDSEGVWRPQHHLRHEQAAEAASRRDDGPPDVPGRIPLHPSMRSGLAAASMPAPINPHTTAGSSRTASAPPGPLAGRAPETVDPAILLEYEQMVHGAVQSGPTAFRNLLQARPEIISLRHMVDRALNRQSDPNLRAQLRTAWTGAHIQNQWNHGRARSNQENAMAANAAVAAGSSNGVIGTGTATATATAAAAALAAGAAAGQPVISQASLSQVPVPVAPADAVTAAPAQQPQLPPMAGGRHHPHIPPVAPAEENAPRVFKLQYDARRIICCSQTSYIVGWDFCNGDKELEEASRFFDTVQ

Molecule: CCCCCCCCCCCCCCCC(=O)N[C@H](CN1CCOCC1)[C@H](O)c1ccccc1 (racemic) [PPMP, DL-threo-1-phenyl-2-palmitoylamino-3-morpholino-1-propanol]
CT-B / Alexa Fluor 594 red signal (lipid raft; GlcCer) [1]: significant reduction in the bright red signal

Molecule: OO [hydrogen peroxide, reference compound]
SYTOXGreen fluorescence, positive control [2]: green fluorescence signal increased significantly

Kd [3]: 1500 µM
B1: Pisum sativum defensin 1 (peptide, UniProt P81929 1-46, looked up)
chain: KTCEHLADTYRGVCFTNASCDDHCKNKAHLISGTCHNWKCFCTQNC
notes: Pisum sativum defensin 1 (Psd1), 46-amino acid residue plant defensin from pea seeds; also called Psd1; pea defensin Psd1; source: expressed and purified as previously described [11], first step HiPrep 26/60 Sephacryl S-100 HR; the abstract says Psd1 can be expressed in Pichia pastoris
